Experimental data from the supplement of paper PMC10307832.

Columns and labels:
Experiment in all cases: relative viability (nuclei count vs DMSO), 5 days (fraction); higher = more cells survive
[1] = compound: COc1cc2/c(=N/c3ccc(Br)cc3F)nc[nH]c2cc1OCC1CCN(C)CC1 [Vandetanib] + COc1cccc2cc(-c3nc([C@H]4CC[C@H](C(=O)O)CC4)n4ncnc(N)c34)[nH]c12 [OSI-027] (partner 0.5 µM)
Summary of the method: (§1)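 Relative viability equals treated-well nuclei counts divided by vehicle-well nuclei counts. Counts came from 4× images of lung cancer cell lines grown in 1536-well plates for 5 days after pin-tool dosing on the day after seeding. Dosing used one drug alone or a fixed anchor-drug dose plus five library-drug doses (not always all listed) in √10 steps, and values are medians of duplicate plates.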

[2] = compound: COc1cc(N2CCC(N3CCN(C)CC3)CC2)ccc1Nc1ncc(Cl)c(Nc2ccccc2S(=O)(=O)C(C)C)n1 [NVP-TAE684] + Cc1cc(Nc2cc(N3CCN(C)CC3)nc(Sc3ccc(NC(=O)C4CC4)cc3)n2)n[nH]1 [Tozasertib] (partner 0.1 µM)
Summary of the method: as §1

[3] = compound: C1=CC=C2C(=C1)N=C(S2)C(C#N)C3=NC(=NC=C3)NCCC4=CN=CC=C4 + Cc1nc(NC(=O)N2CCC[C@H]2C(N)=O)sc1-c1ccnc(C(C)(C)C(F)(F)F)c1 [Alpelisib] (partner 2 µM)
Summary of the method: as §1

[4] = compound: C#Cc1cccc(Nc2ncnc3cc(OC)c(OCCCCCCC(=O)NO)cc23)c1 [CUDC-101] + Cc1cc(Nc2cc(N3CCN(C)CC3)nc(Sc3ccc(NC(=O)C4CC4)cc3)n2)n[nH]1 [Tozasertib] (partner 0.1 µM)
Summary of the method: as §1

## NCI-H2126
[1]; first compound 0.02 µM
  relative viability: 0.694
[1]; first compound 0.06325 µM
  relative viability: 0.661
[1]; first compound 0.2 µM
  relative viability: 0.64
[1]; first compound 0.6325 µM
  relative viability: 0.627
[1]; first compound 2 µM
  relative viability: 0.648
[2]; first compound 0.2 µM
  relative viability: 0.96
[2]; first compound 0.6325 µM
  relative viability: 0.764
[2]; first compound 2 µM
  relative viability: 0.407
[3]; first compound 0.005 µM
  relative viability: 0.722
[3]; first compound 0.01581 µM
  relative viability: 0.734
[3]; first compound 0.05 µM
  relative viability: 0.773
[3]; first compound 0.1581 µM
  relative viability: 0.765
[3]; first compound 0.5 µM
  relative viability: 0.793
[4]; first compound 0.01 µM
  relative viability: 0.892
[4]; first compound 0.03162 µM
  relative viability: 0.79
[4]; first compound 0.1 µM
  relative viability: 0.807
[4]; first compound 0.3162 µM
  relative viability: 0.867
[4]; first compound 1 µM
  relative viability: 0.743

## NCI-H2170
[1]; first compound 0.02 µM
  relative viability: 0.641
[1]; first compound 0.06325 µM
  relative viability: 0.673
[1]; first compound 0.2 µM
  relative viability: 0.727
[1]; first compound 0.6325 µM
  relative viability: 0.655
[1]; first compound 2 µM
  relative viability: 0.811
[2]; first compound 0.2 µM
  relative viability: 0.735
[2]; first compound 0.6325 µM
  relative viability: 0.632
[2]; first compound 2 µM
  relative viability: 0.543
[3]; first compound 0.01581 µM
  relative viability: 0.801
[3]; first compound 0.05 µM
  relative viability: 0.845
[3]; first compound 0.1581 µM
  relative viability: 0.838
[3]; first compound 0.5 µM
  relative viability: 0.723
[4]; first compound 0.01 µM
  relative viability: 0.632
[4]; first compound 0.03162 µM
  relative viability: 0.698
[4]; first compound 0.1 µM
  relative viability: 0.753
[4]; first compound 0.3162 µM
  relative viability: 0.62
[4]; first compound 1 µM
  relative viability: 0.345

## NCI-H2228
[1]; first compound 0.02 µM
  relative viability: 0.651
[1]; first compound 0.06325 µM
  relative viability: 0.42
[1]; first compound 0.2 µM
  relative viability: 0.744
[1]; first compound 0.6325 µM
  relative viability: 0.422
[1]; first compound 2 µM
  relative viability: 0.631
[2]; first compound 0.2 µM
  relative viability: 0.196
[2]; first compound 0.6325 µM
  relative viability: 0.129
[2]; first compound 2 µM
  relative viability: 0.136
[3]; first compound 0.005 µM
  relative viability: 0.513
[3]; first compound 0.01581 µM
  relative viability: 0.715
[3]; first compound 0.05 µM
  relative viability: 0.754
[3]; first compound 0.1581 µM
  relative viability: 0.818
[3]; first compound 0.5 µM
  relative viability: 0.524
[4]; first compound 0.01 µM
  relative viability: 0.255
[4]; first compound 0.03162 µM
  relative viability: 0.237
[4]; first compound 0.1 µM
  relative viability: 0.263
[4]; first compound 0.3162 µM
  relative viability: 0.317
[4]; first compound 1 µM
  relative viability: 0.194

## NCI-H2347
[1]; first compound 0.02 µM
  relative viability: 0.518
[1]; first compound 0.2 µM
  relative viability: 0.386
[1]; first compound 0.6325 µM
  relative viability: 0.492
[1]; first compound 2 µM
  relative viability: 0.361
[2]; first compound 0.2 µM
  relative viability: 0.59
[2]; first compound 0.6325 µM
  relative viability: 0.487
[2]; first compound 2 µM
  relative viability: 0.359
[3]; first compound 0.005 µM
  relative viability: 1.1
[3]; first compound 0.01581 µM
  relative viability: 0.992
[3]; first compound 0.05 µM
  relative viability: 0.954
[3]; first compound 0.1581 µM
  relative viability: 1.05
[3]; first compound 0.5 µM
  relative viability: 1.18
[4]; first compound 0.01 µM
  relative viability: 0.561
[4]; first compound 0.03162 µM
  relative viability: 0.614
[4]; first compound 0.1 µM
  relative viability: 0.608
[4]; first compound 0.3162 µM
  relative viability: 0.583
[4]; first compound 1 µM
  relative viability: 0.499

## NCI-H2405
[1]; first compound 0.02 µM
  relative viability: 0.621
[1]; first compound 0.06325 µM
  relative viability: 0.422
[1]; first compound 0.2 µM
  relative viability: 0.72
[1]; first compound 0.6325 µM
  relative viability: 0.671
[1]; first compound 2 µM
  relative viability: 0.482
[2]; first compound 0.2 µM
  relative viability: 0.742
[2]; first compound 0.6325 µM
  relative viability: 0.664
[2]; first compound 2 µM
  relative viability: 0.35
[3]; first compound 0.005 µM
  relative viability: 0.75
[3]; first compound 0.01581 µM
  relative viability: 0.784
[3]; first compound 0.05 µM
  relative viability: 0.734
[3]; first compound 0.1581 µM
  relative viability: 0.731
[3]; first compound 0.5 µM
  relative viability: 0.839
[4]; first compound 0.01 µM
  relative viability: 0.748
[4]; first compound 0.03162 µM
  relative viability: 0.809
[4]; first compound 0.1 µM
  relative viability: 0.725
[4]; first compound 0.3162 µM
  relative viability: 0.756
[4]; first compound 1 µM
  relative viability: 0.611

## NCI-H3122
[1]; first compound 0.02 µM
  relative viability: 0.97
[1]; first compound 0.06325 µM
  relative viability: 0.924
[1]; first compound 0.2 µM
  relative viability: 0.937
[1]; first compound 0.6325 µM
  relative viability: 0.931
[1]; first compound 2 µM
  relative viability: 1.06
[2]; first compound 0.2 µM
  relative viability: 0.156
[2]; first compound 0.6325 µM
  relative viability: 0.091
[2]; first compound 2 µM
  relative viability: 0.118
[3]; first compound 0.005 µM
  relative viability: 0.676
[3]; first compound 0.01581 µM
  relative viability: 0.791
[3]; first compound 0.05 µM
  relative viability: 0.819
[3]; first compound 0.1581 µM
  relative viability: 0.977
[3]; first compound 0.5 µM
  relative viability: 0.852
[4]; first compound 0.01 µM
  relative viability: 0.373
[4]; first compound 0.03162 µM
  relative viability: 0.451
[4]; first compound 0.1 µM
  relative viability: 0.391
[4]; first compound 0.3162 µM
  relative viability: 0.321
[4]; first compound 1 µM
  relative viability: 0.386

## PC-3 [JPC-3]
[1]; first compound 0.02 µM
  relative viability: 0.757
[1]; first compound 0.06325 µM
  relative viability: 0.768
[1]; first compound 0.2 µM
  relative viability: 0.795
[1]; first compound 0.6325 µM
  relative viability: 0.462
[1]; first compound 2 µM
  relative viability: 0.45
[2]; first compound 0.2 µM
  relative viability: 0.926
[2]; first compound 0.6325 µM
  relative viability: 0.86
[2]; first compound 2 µM
  relative viability: 0.584
[3]; first compound 0.005 µM
  relative viability: 0.935
[3]; first compound 0.01581 µM
  relative viability: 1.02
[3]; first compound 0.05 µM
  relative viability: 0.96
[3]; first compound 0.1581 µM
  relative viability: 1.08
[3]; first compound 0.5 µM
  relative viability: 0.954
[4]; first compound 0.01 µM
  relative viability: 0.89
[4]; first compound 0.03162 µM
  relative viability: 0.847
[4]; first compound 0.1 µM
  relative viability: 0.834
[4]; first compound 0.3162 µM
  relative viability: 0.61
[4]; first compound 1 µM
  relative viability: 0.314

## PC-14
[1]; first compound 0.02 µM
  relative viability: 0.931
[1]; first compound 0.06325 µM
  relative viability: 0.576
[1]; first compound 0.2 µM
  relative viability: 0.458
[1]; first compound 0.6325 µM
  relative viability: 0.145
[1]; first compound 2 µM
  relative viability: 0.109
[2]; first compound 0.2 µM
  relative viability: 0.627
[2]; first compound 0.6325 µM
  relative viability: 0.531
[2]; first compound 2 µM
  relative viability: 0.461
[3]; first compound 0.005 µM
  relative viability: 0.708
[3]; first compound 0.01581 µM
  relative viability: 1.08
[3]; first compound 0.05 µM
  relative viability: 1
[3]; first compound 0.1581 µM
  relative viability: 1.17
[3]; first compound 0.5 µM
  relative viability: 0.742
[4]; first compound 0.01 µM
  relative viability: 0.656
[4]; first compound 0.03162 µM
  relative viability: 0.544
[4]; first compound 0.1 µM
  relative viability: 0.391
[4]; first compound 0.3162 µM
  relative viability: 0.528
[4]; first compound 1 µM
  relative viability: 0.115

## RERF-LC-KJ
[1]; first compound 0.02 µM
  relative viability: 0.627
[1]; first compound 0.06325 µM
  relative viability: 0.537
[1]; first compound 0.2 µM
  relative viability: 0.545
[1]; first compound 0.6325 µM
  relative viability: 0.471
[1]; first compound 2 µM
  relative viability: 0.412
[2]; first compound 0.2 µM
  relative viability: 0.469
[2]; first compound 0.6325 µM
  relative viability: 0.488
[2]; first compound 2 µM
  relative viability: 0.268
[3]; first compound 0.005 µM
  relative viability: 0.915
[3]; first compound 0.01581 µM
  relative viability: 0.849
[3]; first compound 0.05 µM
  relative viability: 0.759
[3]; first compound 0.1581 µM
  relative viability: 0.899
[3]; first compound 0.5 µM
  relative viability: 0.82
[4]; first compound 0.01 µM
  relative viability: 0.516
[4]; first compound 0.03162 µM
  relative viability: 0.505
[4]; first compound 0.1 µM
  relative viability: 0.476
[4]; first compound 0.3162 µM
  relative viability: 0.442
[4]; first compound 1 µM
  relative viability: 0.371
